Where a name gives a salt, the structure may show the parent alone. Blank lines part the entries; values can stand above or below the molecule they belong to.
What was measured:
human factor XIa = target: T1, human factor XIa (Homo sapiens, UniProt P03951); test: Measurement of FXIa inhibition (fluorogenic peptide substrate Boc-Glu(OBzl)-Ala-Arg-AMC); format: biochemical; settings: factor XIa from Kordia, 15 min preincubation, 30 min at 22° C., fluorescence
T1 construct: purchased Kordia
Summary of the method: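 Released AMC fluorescence (360/460 nm) read after 30 min at 22 °C. The reaction was started with Boc-Glu(OBzl)-Ala-Arg-AMC (10 μM stock) after a 15 min preincubation of the enzyme (0.45 nM stock) with compound (final 50 μM to 0.00013 μM).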

human and animal plasma = test: Determination of anticoagulatory activity: activated partial thromboplastin time (aPTT) in plasma; settings: concentration of test substance which brings about a 1.5-fold extension of the aPTT; plasma species not given
Summary of the method: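 Citrated plasma (1:9, 0.11 M citrate; 4000 g, 15 min) from human or animal blood incubated with test compound and cephalin/kaolin PTT reagent for 3 min at 37° C.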

T1 sequence (P03951 388-625 limits assumed): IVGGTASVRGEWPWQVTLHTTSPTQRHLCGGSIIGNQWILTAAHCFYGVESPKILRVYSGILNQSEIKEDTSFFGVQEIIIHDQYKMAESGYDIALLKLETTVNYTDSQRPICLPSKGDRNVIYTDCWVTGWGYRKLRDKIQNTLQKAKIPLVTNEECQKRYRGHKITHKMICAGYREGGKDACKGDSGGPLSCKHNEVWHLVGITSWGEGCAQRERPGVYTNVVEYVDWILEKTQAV
T1 sequence (P03951 19-387 partner limits assumed): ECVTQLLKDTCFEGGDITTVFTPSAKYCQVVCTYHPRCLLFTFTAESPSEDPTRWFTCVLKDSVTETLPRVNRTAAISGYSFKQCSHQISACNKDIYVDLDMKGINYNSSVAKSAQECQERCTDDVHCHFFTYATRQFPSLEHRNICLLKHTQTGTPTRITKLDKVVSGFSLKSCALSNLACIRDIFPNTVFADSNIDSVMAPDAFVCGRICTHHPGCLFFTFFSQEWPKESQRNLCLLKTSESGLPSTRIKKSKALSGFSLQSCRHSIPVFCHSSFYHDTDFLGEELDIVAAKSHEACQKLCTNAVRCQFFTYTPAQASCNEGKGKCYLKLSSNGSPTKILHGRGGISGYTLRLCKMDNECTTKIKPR

SMILES: Cc1cc(C(=O)NC2CCC(N(C)Cc3ccccc3)CC2)ccc1-c1ccc(C[C@H](NC(=O)[C@H]2CC[C@H](CN)CC2)C(=O)Nc2ccc(-c3nnn[nH]3)cc2)cc1 (stereo partly drawn) [Example 146, 4′-[(2S)-2-({[trans-4-(Aminomethyl)cyclohexyl]carbonyl}amino)-3-oxo-3-{[4-(1H-tetrazol-5-yl)phenyl]amino}propyl]-N-{4-[benzyl(methyl)amino]cyclohexyl}-2-methylbiphenyl-4-carboxamide hydrochloride]
IC50 (human factor XIa): 1.8 nM
aPTT (human and animal plasma): 0.07 µmol/L

SMILES: Cc1cc(C(=O)NCCCN(C)C)ccc1-c1ccc(C[C@H](NC(=O)[C@H]2CC[C@H](CN)CC2)C(=O)Nc2ccc3[nH]c(C(F)(F)C(F)(F)F)nc3c2)cc1 [Example 81, 4′-[(2S)-2-({[trans-4-(Aminomethyl)cyclohexyl]carbonyl}amino)-3-oxo-3-{[2-(pentafluoroethyl)-1H-benzimidazol-5-yl]amino}propyl]-N-[3-(dimethylamino)propyl]-2-methylbiphenyl-4-carboxamide hydrochloride]
IC50 (human factor XIa): 22 nM
aPTT (human and animal plasma): 0.41 µmol/L

SMILES: Cc1cc(C(=O)NC2CCNCC2)ccc1-c1ccc(C[C@H](NC(=O)[C@H]2CC[C@H](CN)CC2)C(=O)Nc2ccc3cn[nH]c3c2)cc1 [Example 4, 4′-[(2S)-2-({[trans-4-(Aminomethyl)cyclohexyl]carbonyl}amino)-3-(1H-indazol-6-ylamino)-3-oxopropyl]-2-methyl-N-(piperidin-4-yl)biphenyl-4-carboxamide hydrochloride]
IC50 (human factor XIa): 11.9 nM
aPTT (human and animal plasma): 0.21 µmol/L

SMILES: Cc1cc(C(=O)N[C@H]2CC[C@H](N)CC2)ccc1-c1ccc(C[C@H](NC(=O)[C@H]2CC[C@H](CN)CC2)C(=O)Nc2ccc3[nH]c(C(F)(F)C(F)(F)F)nc3c2)cc1 [Example 79, N-(trans-4-Aminocyclohexyl)-4′-[(2S)-2-({[trans-4-(aminomethyl)cyclohexyl]carbonyl}amino)-3-oxo-3-{[2-(pentafluoroethyl)-1H-benzimidazol-5-yl]amino}propyl]-2-methylbiphenyl-4-carboxamide hydrochloride]
IC50 (human factor XIa): 12 nM
aPTT (human and animal plasma): 0.21 µmol/L

SMILES: Cc1cc(C(=O)NC2CCN(C)CC2)ccc1-c1ccc(C[C@H](NC(=O)[C@H]2CC[C@H](CN)CC2)C(=O)Nc2ccc3[nH]c(C(F)(F)C(F)(F)F)nc3c2)cc1 [Example 82, 4′-[(2S)-2-({[trans-4-(Aminomethyl)cyclohexyl]carbonyl}amino)-3-oxo-3-{[2-(pentafluoroethyl)-1H-benzimidazol-5-yl]amino}propyl]-2-methyl-N-(1-methylpiperidin-4-yl)biphenyl-4-carboxamide hydrochloride]
IC50 (human factor XIa): 21 nM
aPTT (human and animal plasma): 0.39 µmol/L

SMILES: CCN(CC)CCNC(=O)c1ccc(-c2ccc(C[C@H](NC(=O)[C@H]3CC[C@H](CN)CC3)C(=O)Nc3ccc4cn[nH]c4c3)cc2)c(C)c1 [Example 6, 4′-[(2S)-2-({[trans-4-(Aminomethyl)cyclohexyl]carbonyl}amino)-3-(1H-indazol-6-ylamino)-3-oxopropyl]-N-[2-(diethylamino)ethyl]-2-methylbiphenyl-4-carboxamide hydrochloride]
IC50 (human factor XIa): 17 nM
aPTT (human and animal plasma): 0.21 µmol/L

IC50 (human factor XIa): 6 nM
SMILES: Cc1cc(C(=O)NCC[N+](C)(C)C)ccc1-c1ccc(C[C@H](NC(=O)[C@H]2CC[C@H](CN)CC2)C(=O)Nc2ccc(-c3nn[nH]n3)cc2)cc1 [Example 41, 2-[({4′-[(2S)-2-({[trans-4-(Aminomethyl)cyclohexyl]carbonyl}amino)-3-oxo-3-({[4-(2H-tetrazol-5-yl)phenyl]amino}propyl]-2-methylbiphenyl-4-yl}carbonyl)amino]-N,N,N-trimethylethanaminium hydrochloride]
aPTT (human and animal plasma): 0.18 µmol/L

SMILES: NC[C@H]1CC[C@H](C(=O)N[C@@H](Cc2ccc(-c3ccc(C(=O)N[C@@H]4CCNC4)cc3)cc2)C(=O)Nc2ccc(-c3nn[nH]n3)cc2)CC1 [Example 39, 4′-[(2S)-2-({[trans-4-(Aminomethyl)cyclohexyl]carbonyl}amino)-3-oxo-3-{[4-(2H-tetrazol-5-yl)phenyl]amino}propyl]-N-[(3R)-pyrrolidin-3-yl]biphenyl-4-carboxamide hydrochloride]
IC50 (human factor XIa): 9.8 nM
aPTT (human and animal plasma): 0.1 µmol/L

SMILES: Cc1cc(C(=O)NC2CCNC(C)C2)ccc1-c1ccc(C[C@H](NC(=O)[C@H]2CC[C@H](CN)CC2)C(=O)Nc2ccc3c(=O)[nH][nH]c3c2)cc1 (stereo partly drawn) [Example 31, 4′-{(2S)-2-({[trans-4-(Aminomethyl)cyclohexyl]carbonyl}amino)-3-oxo-3-[(3-oxo-2,3-dihydro-1H-indazol-6-yl)amino]propyl}-2-methyl-N-(2-methylpiperidin-4-yl)biphenyl-4-carboxamide hydrochloride]
IC50 (human factor XIa): 30 nM
aPTT (human and animal plasma): 0.22 µmol/L

SMILES: Cc1cc(C(=O)NC2C3CNCC32)ccc1-c1ccc(C[C@H](NC(=O)[C@H]2CC[C@H](CN)CC2)C(=O)Nc2ccc(-c3nnc(C(F)(F)C(F)(F)C(=O)O)[nH]3)cc2)cc1 (stereo partly drawn) [Example 154, 3-(5-[4-({(2S)-2-({[trans-4-(Aminomethyl)cyclohexyl]carbonyl}amino)-3-[4′-(3-azabicyclo[3.1.0]hex-6-ylcarbamoyl)-2′-methylbiphenyl-4-yl]propanoyl}amino)phenyl]-4H-1,2,4-triazol-3-yl}-2,2,3,3-tetrafluoropropanoic acid hydrochloride]
IC50 (human factor XIa): 2.8 nM
aPTT (human and animal plasma): 0.09 µmol/L

IC50 (human factor XIa): 3.2 nM
SMILES: Cc1cc(C(=O)N[C@@H]2C[C@@H](CO)NC2=O)ccc1-c1ccc(C[C@H](NC(=O)[C@H]2CC[C@H](CN)CC2)C(=O)Nc2ccc3[nH]c(=O)[nH]c3c2)cc1 [Example 97, 4′-{(2S)-2-({[trans-4-(Aminomethyl)cyclohexyl]carbonyl}amino)-3-oxo-3-[(2-oxo-2,3-dihydro-1H-benzimidazol-5-yl)amino]propyl}-N-[(3R,5S)-5-(hydroxymethyl)-2-oxopyrrolidin-3-yl]-2-methylbiphenyl-4-carboxamide hydrochloride]
aPTT (human and animal plasma): 0.06 µmol/L

IC50 (human factor XIa): 4.2 nM
SMILES: NC[C@H]1CC[C@H](C(=O)N[C@@H](Cc2ccc(-c3ccc(C(=O)N[C@H]4CCNC4)cc3Cl)cc2)C(=O)Nc2ccc(-c3nn[nH]n3)cc2)CC1 [Example 13, 4′-[(2S)-2-({[trans-4-(Aminomethyl)cyclohexyl]carbonyl}amino)-3-oxo-3-{[4-(2H-tetrazol-5-yl)phenyl]amino}propyl]-2-chloro-N-[(3S)-pyrrolidin-3-yl]biphenyl-4-carboxamide hydrochloride]
aPTT (human and animal plasma): 0.44 µmol/L

SMILES: Cc1cc(C(=O)NCC2CCN(C)CC2)ccc1-c1ccc(C[C@H](NC(=O)[C@H]2CC[C@H](CN)CC2)C(=O)Nc2ccc(-c3nnc(C(F)(F)C(F)(F)C(=O)O)[nH]3)cc2)cc1 [Example 108, 3-[5-(4-{[(2S)-2-({[trans-4-(Aminomethyl)cyclohexyl]carbonyl}amino)-3-(2′-methyl-4′-{[(1-methylpiperidin-4-yl)methyl]carbamoyl}biphenyl-4-yl)propanoyl]amino}phenyl)-4H-1,2,4-triazol-3-yl]-2,2,3,3-tetrafluoropropanoic acid hydrochloride]
IC50 (human factor XIa): 1.9 nM
aPTT (human and animal plasma): 0.07 µmol/L

SMILES: Cc1cc(C(=O)NC2CCNCC2)ccc1-c1ccc(C[C@H](NC(=O)[C@H]2CC[C@H](CN)CC2)C(=O)Nc2ccc(-c3c[nH]cn3)cc2)cc1 [Example 84, 4′-[(2S)-2-({[trans-4-(Aminomethyl)cyclohexyl]carbonyl}amino)-3-{[4-(1H-imidazol-4-yl)phenyl]amino}-3-oxopropyl]-2-methyl-N-(piperidin-4-yl)biphenyl-4-carboxamide hydrochloride]
IC50 (human factor XIa): 18 nM
aPTT (human and animal plasma): 0.3 µmol/L

SMILES: Cc1cc(C(=O)NC2CCCNC2=O)ccc1-c1ccc(C[C@H](NC(=O)[C@H]2CC[C@H](CN)CC2)C(=O)Nc2ccc3cn[nH]c3c2)cc1 (stereo partly drawn) [Example 143, 4′-[(2S)-2-({[trans-4-(Aminomethyl)cyclohexyl]carbonyl}amino)-3-(1H-indazol-6-ylamino)-3-oxopropyl]-2-methyl-N-(2-oxopiperidin-3-yl)biphenyl-4-carboxamide hydrochloride]
IC50 (human factor XIa): 2.3 nM
aPTT (human and animal plasma): 0.07 µmol/L

IC50 (human factor XIa): 7.2 nM
SMILES: Cl.NC[C@H]1CC[C@H](C(=O)N[C@@H](Cc2ccc(-c3ccc(C(=O)NCCN4CCCC4)cc3)cc2)C(=O)Nc2ccc(-c3nnn[nH]3)cc2)CC1 [Example 91, 4′-[(2S)-2-({[trans-4-(Aminomethyl)cyclohexyl]carbonyl}amino)-3-oxo-3-{[4-(1H-tetrazol-5-yl)phenyl]amino}propyl]-N-[2-(pyrrolidin-1-yl)ethyl]biphenyl-4-carboxamide hydrochloride]
aPTT (human and animal plasma): 0.14 µmol/L

SMILES: CCN(CC)CCCNC(=O)c1ccc(-c2ccc(C[C@H](NC(=O)[C@H]3CC[C@H](CN)CC3)C(=O)Nc3ccc4c(=O)[nH][nH]c4c3)cc2)c(C)c1 [Example 24, 4′-{(2S)-2-({[trans-4-(Aminomethyl)cyclohexyl]carbonyl}amino)-3-oxo-3-[(3-oxo-2,3-dihydro-1H-indazol-6-yl)amino]propyl}-N-[3-(diethylamino)propyl]-2-methylbiphenyl-4-carboxamide hydrochloride]
IC50 (human factor XIa): 18 nM
aPTT (human and animal plasma): 0.31 µmol/L

IC50 (human factor XIa): 1.7 nM
SMILES: Cc1cc(C(=O)N[C@H]2CCNC2)ccc1-c1ccc(C[C@H](NC(=O)[C@H]2CC[C@H](CN)CC2)C(=O)Nc2ccc(-c3nn[nH]n3)cc2)cc1 [Example 9, 4′-[(2S)-2-({[trans-4-(Aminomethyl)cyclohexyl]carbonyl}amino)-3-oxo-3-{[4-(2H-tetrazol-5-yl)phenyl]amino}propyl]-2-methyl-N-[(3S)-pyrrolidin-3-yl]biphenyl-4-carboxamide hydrochloride]
aPTT (human and animal plasma): 0.09 µmol/L

Source: patent US20160272617A1, “SUBSTITUTED PHENYLALANINE DERIVATIVES” (BAYER PHARMA AKTIENGESELLSCHAFT, priority 2013, published 2016)
